Measured values reported in the supplement of paper PMC4862054.

Key:
[1] = test system: MDA-MB-453; settings: 72 h
Summary of the method: (§1)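 For viability, cells received 2.5 µl CellTiter-Blue for 2 h at 37 °C and fluorescence was read at 560/590 nm. Before this, breast cancer cell lines in 20 µl suspension had been incubated for 72 h on 384-well plates pre-loaded with compound dissolved in 5 µl medium. EC50 was obtained from a percent-inhibition dose-response fit censored at the highest concentration, after normalisation of each plate to vehicle and a positive kill control; rows with a zero drug sensitivity score were discarded.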

[2] = test system: HCC1937; assay: drug sensitivity score (DSS), CellTox Green (DSS (AUC-based score)); higher = stronger drug effect (viability inhibition or cytotoxicity); extreme values may be limits of the assay; settings: incubation time: 72 h
Summary of the method: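 Breast cancer cell lines (20 µl suspension) were seeded into 384-well plates holding compound at 5 concentrations in 10-fold steps over a compound-specific 10,000-fold range, then incubated 72 h. CellTox Green fluorescence (485/520 nm) was read first, then CellTiter-Glo luminescence after 10 min at room temperature. Each plate was normalised to 0.1 % DMSO and a positive kill control. The drug sensitivity score was calculated from the area under the fitted dose-response curve.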

[3] = test system: BT-549; settings: 72 h
Summary of the method: (§2)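 A 20 µl suspension of breast cancer cells was placed in 384-well plates that already contained compound at 5 concentrations in 10-fold steps across a compound-specific 10,000-fold range, and the plates were left for 72 h. CellTox Green fluorescence at 485/520 nm gave cell death, and CellTiter-Glo luminescence, read after 10 min at room temperature, gave viability. Each plate was normalised to 0.1 % DMSO and a positive kill control. EC50 was fitted from the curves and censored at the top concentration.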

[4] = test system: CAL-120; settings: 72 h
Summary of the method: as §2

[5] = test system: CAL-51; settings: 72 h
Summary of the method: as §2

[6] = test system: CAL-85-1; settings: 72 h
Summary of the method: as §2

[7] = test system: DU-4475; settings: 72 h
Summary of the method: as §2

[8] = test system: HCC1143; settings: 72 h
Summary of the method: as §2

[9] = test system: HCC1599; settings: 72 h
Summary of the method: as §2

[10] = test system: HCC1937; settings: 72 h
Summary of the method: as §2

[11] = test system: Hs578T; settings: 72 h
Summary of the method: as §2

[12] = test system: MCF-10A; settings: 72 h
Summary of the method: as §2

[13] = test system: MDA-MB-231; settings: 72 h
Summary of the method: as §2

[14] = test system: MDA-MB-436; settings: 72 h
Summary of the method: as §2

[15] = test system: MDA-MB-453; settings: 72 h; remark: listed apart in the source
Summary of the method: as §2

[16] = test system: MFM-223; settings: 72 h
Summary of the method: as §2

[17] = test system: SK-BR-3; settings: 72 h
Summary of the method: as §2

[18] = test system: BT-549; settings: 72 h; remark: listed apart in the source
Description: (§3)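 Drug sensitivity and resistance testing (DSRT) of breast cancer cell lines in 384-well plates, 5 concentrations in 10-fold dilutions over a compound-specific 10,000-fold range. After 72 h, cytotoxicity was read by CellTox Green fluorescence and viability by CellTiter-Glo luminescence (multiplexed), normalised to DMSO and benzethonium chloride controls. EC50 is the inflection point of the fitted dose-response curve (bottom asymptote free, so it can be relative for partial curves) and is censored at the highest tested concentration. Rows with DSS 0 (no meaningful response) were excluded.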

[19] = test system: CAL-51; settings: 72 h; remark: listed apart in the source
Description: as §3

[20] = test system: CAL-85-1; settings: 72 h; remark: listed apart in the source
Description: as §3

[21] = test system: HDQ-P1; settings: 72 h
Description: as §3

[22] = test system: Hs578T; settings: 72 h; remark: listed apart in the source
Description: as §3

[23] = test system: MCF-10A; settings: 72 h; remark: listed apart in the source
Description: as §3

[24] = test system: MDA-MB-231; settings: 72 h; remark: listed apart in the source
Description: as §3

[25] = test system: MDA-MB-453; settings: 72 h; remark: listed apart in the source
Description: as §3

[26] = test system: MDA-MB-468; settings: 72 h
Description: as §3

[27] = test system: MFM-223; settings: 72 h; remark: listed apart in the source
Description: as §3

[28] = test system: CAL-148; settings: 72 h
Summary of the method: as §2

[29] = test system: CAL-51; settings: 72 h; remark: listed apart in the source
Summary of the method: as §1

[30] = test system: CAL-85-1; settings: 72 h; remark: listed apart in the source
Summary of the method: as §1

[31] = test system: DU-4475; settings: 72 h; remark: listed apart in the source
Summary of the method: as §1

[32] = test system: HDQ-P1; settings: 72 h; remark: listed apart in the source
Summary of the method: as §1

[33] = test system: BT-474; settings: 72 h
Summary of the method: as §1

[34] = test system: BT-549; settings: 72 h; remark: listed apart in the source
Summary of the method: as §1

[35] = test system: CAL-120; settings: 72 h; remark: listed apart in the source
Summary of the method: as §1

[36] = test system: HCC1143; settings: 72 h; remark: listed apart in the source
Summary of the method: as §1

[37] = test system: HCC1937; settings: 72 h; remark: listed apart in the source
Summary of the method: as §1

[38] = test system: Hs578T; settings: 72 h; remark: listed apart in the source
Summary of the method: as §1

[39] = test system: MDA-MB-231; settings: 72 h; remark: listed apart in the source
Summary of the method: as §1

[40] = test system: MDA-MB-436; settings: 72 h; remark: listed apart in the source
Summary of the method: as §1

[41] = test system: MDA-MB-468; settings: 72 h; remark: listed apart in the source
Summary of the method: as §1

[42] = test system: SK-BR-3; settings: 72 h; remark: listed apart in the source
Summary of the method: as §1

[43] = test system: BT-474; settings: 72 h; remark: listed apart in the source
Description: as §3

[44] = test system: CAL-120; settings: 72 h; remark: listed apart in the source
Description: as §3

Compound	EC50, CellTiter-Blue viability [1]	drug sensitivity score [2]	EC50, CellTiter-Glo [3]	EC50, CellTiter-Glo [4]	EC50, CellTiter-Glo [5]	EC50, CellTiter-Glo [6]	EC50, CellTiter-Glo [7]	EC50, CellTiter-Glo [8]	EC50, CellTiter-Glo [9]	EC50, CellTiter-Glo [11]	EC50, CellTiter-Glo [13]	EC50, CellTiter-Glo [14]	EC50, CellTiter-Glo [15]	EC50, CellTiter-Glo [16]	EC50, CellTiter-Glo [17]	EC50, CellTox Green [18]	EC50, CellTox Green [19]	EC50, CellTox Green [22]	EC50, CellTox Green [24]	EC50, CellTox Green [27]	also measured
CC[C@@H]1C(=O)OC[C@@H]1Cc1cncn1C [Pilocarpine]	38300 nM	0	–	–	–	–	–	–	–	–	–	–	–	–	–	–	–	–	–	–	–
Cn1cc(C2=Nc3cc(NC(=O)C(N)C4CCCCC4)cc4c3C2=CNNC4=O)cn1 (stereo not given)	–	0	397 nM	5050 nM	2380 nM	293 nM	9440 nM	1730 nM	130 nM	387 nM	1410 nM	1430 nM	109 nM	109 nM	193 nM	7370 nM	1130 nM	9610 nM	255 nM	3030 nM	EC50, CellTiter-Glo [10]: 3870 nM; EC50, CellTiter-Glo [12]: 2700 nM; EC50, CellTox Green [20]: 88.9 nM; EC50, CellTox Green [21]: 1000 nM; EC50, CellTox Green [23]: 89.5 nM; EC50, CellTox Green [25]: 7250 nM; EC50, CellTox Green [26]: 5280 nM
COc1cc2c(cc1O)CC[C@@H]1[C@@H]2CC[C@]2(C)[C@@H](O)CC[C@@H]12 [2-methoxyestradiol]	552 nM	0	251 nM	1020 nM	4930 nM	2220 nM	4530 nM	1300 nM	6410 nM	1400 nM	938 nM	1060 nM	543 nM	1830 nM	3130 nM	> 10000 nM	4060 nM	1820 nM	756 nM	660 nM	EC50, CellTiter-Glo [28]: 7660 nM; EC50, CellTiter-Blue viability [29]: 2450 nM; EC50, CellTiter-Blue viability [30]: 1280 nM; EC50, CellTiter-Blue viability [31]: 1730 nM; EC50, CellTiter-Blue viability [32]: 4220 nM; EC50, CellTiter-Blue viability [33]: 747 nM; EC50, CellTiter-Blue viability [34]: 1020 nM; EC50, CellTiter-Blue viability [35]: 1510 nM; EC50, CellTiter-Blue viability [36]: 5620 nM; EC50, CellTiter-Blue viability [37]: 820 nM; EC50, CellTiter-Blue viability [38]: 1210 nM; EC50, CellTiter-Blue viability [39]: 432 nM; EC50, CellTiter-Blue viability [40]: 697 nM; EC50, CellTiter-Blue viability [41]: 3190 nM; EC50, CellTiter-Blue viability [42]: 5800 nM; EC50, CellTox Green [43]: 370 nM; EC50, CellTox Green [44]: 6410 nM
